In patent US20040198731A1, “Aminoalkyl-substituted aromatic bicyclic compounds, methods for their preparation and their use as pharmaceuticals” (Aventis Pharma Deutschland GmbH, priority 2001, published 2004):

The compounds below were run on female NMRI mice (assay: Anorectic action: cumulative milk consumption after oral administration). Details: oral dose 10 mg/kg by gavage, feed removed 17 h, monitored for 7 hours, N=5.
Format: in vivo
Method: The anorectic action was tested on female NMRI mice. After removal of feed for 17 hours, the preparation to be tested was administered by gavage. The animals were housed singly and, with free access to drinking water, they were offered evaporated milk 30 minutes after administration of the preparation. The consumption of evaporated milk was determined and the general behavior of the animals were monitored every half an hour for 7 hours. The measured milk consumption was compared to that of vehicle-treated control animals.

Structure (SMILES)	cumulative milk consumption by treated animals
CN(C)CCn1cnc2cc(NC(=O)Nc3ccc(Oc4ccccc4)cc3)ccc21 [Example 4, 1-[1-(2-Dimethylaminoethyl)-1H-benzoimidazol-5-yl]-3-(4-phenoxyphenyl)urea]	5/2.74 mL

Same assay, conditions: oral dose 10 mg/kg by gavage, versus vehicle-treated control animals

Structure (SMILES)	Reduction in cumulative milk consumption as % of the control
CN(C)CCn1cnc2cc(NC(=O)Nc3ccc(Oc4ccccc4)cc3)ccc21 [Example 4, 1-[1-(2-Dimethylaminoethyl)-1H-benzoimidazol-5-yl]-3-(4-phenoxyphenyl)urea]	38%

Same assay, conditions: oral dose 30 mg/kg by gavage, feed removed 17 h, monitored for 7 hours, N=5

Structure (SMILES)	cumulative milk consumption by treated animals
CN(C)CCn1ccc2cc(NC(=O)Nc3ccc(Oc4ccccc4)cc3)ccc21 [Example 1, 1-[1-(2-Dimethylaminoethyl)-1H-indol-5-yl]-3-(4-phenoxyphenyl)urea]	5/2.28 mL

Same assay, conditions: oral dose 30 mg/kg by gavage, versus vehicle-treated control animals

Structure (SMILES)	Reduction in cumulative milk consumption as % of the control
CN(C)CCn1ccc2cc(NC(=O)Nc3ccc(Oc4ccccc4)cc3)ccc21 [Example 1, 1-[1-(2-Dimethylaminoethyl)-1H-indol-5-yl]-3-(4-phenoxyphenyl)urea]	30%

These compounds were tested against T1, human MCH receptor (Homo sapiens, UniProt Q99705) (assay: Functional measurement of cellular calcium flow (FLIPR) in recombinant HEK293 cells expressing human MCH receptor). Details: cellular assay, calcium flow after addition of agonist (MCH), HEK293 (PEAK Stable Cells) expressing human MCH receptor.
T1 construct: expressed in transfected cells
Format: cell-based
From the text: In two simultaneously published articles in Nature (Nature, 400:261-264, 1999; Nature, 400:265-269, 1999, see enclosure), two groups separately described a highly specific receptor for melanin-concentrating hormone (MCH). MCH takes over important functions in the control of food intake. Compounds acting on the MCH receptor therefore have anorectic action and are suitable for the treatment of obesity. The test for anorectic action of the inventive compounds of formula I was therefore carried out as follows.
Functional measurements for determination of IC50
Cloning of the cDNA for human MCH receptor, preparation of a recombinant HEK293 cell line expressing human MCH receptor and functional measurements with said recombinant cell line were carried out according to the description by Audinot et al. (J. Biol. Chem., 276, 13554-13562, 2001). In contrast to the reference, however, plasmid pEAK8 from EDGE Biosystems (USA) was used for constructing the expression vector. A transformed HEK cell line named “PEAK Stable Cells” (likewise from EDGE Biosystems) served as host for transfection. The functional measurements of cellular calcium flow, after addition of agonists (MCH), in the presence of the ligand of the invention was carried out with the aid of the FLIPR instrument from Molecular Devices (USA), using the manufacturer's protocols.

T1 sequence (Q99705 whole entry): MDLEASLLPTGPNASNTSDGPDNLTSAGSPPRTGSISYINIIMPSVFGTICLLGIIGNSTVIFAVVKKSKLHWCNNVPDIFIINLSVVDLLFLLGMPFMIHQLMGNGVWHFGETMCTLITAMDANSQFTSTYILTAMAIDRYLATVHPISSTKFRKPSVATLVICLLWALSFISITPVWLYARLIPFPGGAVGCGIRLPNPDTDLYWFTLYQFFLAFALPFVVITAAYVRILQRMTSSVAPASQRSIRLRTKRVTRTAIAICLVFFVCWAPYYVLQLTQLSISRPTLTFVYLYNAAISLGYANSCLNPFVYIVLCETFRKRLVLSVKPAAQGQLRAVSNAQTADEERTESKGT

IC50	Structure (SMILES)
860 nM	CN(C)CCn1ccc2cc(NC(=O)Nc3ccc(N4CC=CCC4)cc3)ccc21 [Example 24, 1-[4-(3,6-Dihydro-2H-py-ridin-1-yl)phenyl]-3-[1-(2-di-methylaminoethyl)-1H-in-dol-5-yl]urea]
920 nM	CN(C)CCn1ccc2cc(NC(=O)Nc3ccc(N4CCSCC4)cc3)ccc21 [Example 26, 1-[1-(2-Di-methylaminoethyl)-1H-in-dol-5-yl]-3-(4-thio-morpholin-4-yl-phe-nyl)urea]
2910 nM	CC1CCCN(c2ccc(NC(=O)Nc3ccc4c(ccn4CCN(C)C)c3)cc2)C1 (stereo not shown) [Example 29, 1-[1-(2-Di-methylaminoethyl)-1H-in-dol-5-yl]-3-[4-(3-methyl-piperidin-1-yl)phe-nyl]urea]
1240 nM	CC1CCN(c2ccc(NC(=O)Nc3ccc4c(ccn4CCN(C)C)c3)cc2)CC1 [Example 33, 1-[1-(2-Di-methylaminoethyl)-1H-in-dol-5-yl]-3-[4-(4-methyl-piperidin-1-yl)phe-nyl]urea]
2650 nM	CCCCc1ccc(NC(=O)Nc2ccc3c(ccn3CCN(C)C)c2)cc1 [Example 71, 1-(4-Butylphenyl)-3-[1-(2-di-methylaminoethyl)-1H-in-dol-5-yl]urea]
2750 nM	CN(C)CCn1ccc2cc(NC(=O)Nc3ccc(-c4ccccc4)cc3)ccc21 [Example 78, 1-Biphenyl-4-yl-3-[1-(2-di-methylaminoethyl)-1H-in-dol-5-yl]urea]
2690 nM	CN(C)CCn1ccc2cc(NC(=O)Nc3ccc(-c4ccc(F)cc4)cc3)ccc21 [Example 81, 1-[1-(2-Di-methylaminoethyl)-1H-in-dol-5-yl]-3-(4′-fluoro-biphenyl-4-yl)urea]
1000 nM	Cc1cccc(Oc2ccc(NC(=O)Nc3ccc4c(ccn4CCN(C)C)c3)cc2)c1 [Example 107, 1-[1-(2-Di-methylaminoethyl)-1H-in-dol-5-yl]-3-(4-m-tolyl-oxyphenyl)urea]
430 nM	Cc1ccccc1Oc1ccc(NC(=O)Nc2ccc3c(ccn3CCN(C)C)c2)cc1 [Example 108, 1-[1-(2-Di-methylaminoethyl)-1H-in-dol-5-yl]-3-(4-o-tolyl-oxyphenyl)urea]

Second part, the compound before the results:

Structure (SMILES)	IC50
CN(C)CCn1ccc2cc(NC(=O)Nc3ccc(Oc4ccccc4)cc3)ccc21 [Example 1, 1-[1-(2-Dimethylaminoethyl)-1H-indol-5-yl]-3-(4-phenoxyphenyl)urea]	150 nM
CN(C)CCn1cnc2cc(NC(=O)Nc3ccc(Oc4ccccc4)cc3)ccc21 [Example 4, 1-[1-(2-Dimethylaminoethyl)-1H-benzoimidazol-5-yl]-3-(4-phenoxyphenyl)urea]	130 nM
CC(C)COc1ccc(NC(=O)Nc2ccc3c(ccn3CCN(C)C)c2)c(F)c1 [Example 63, 1-[1-(2-Dimethyl-aminoethyl)-1H-in-dol-5-yl]-3-(2-fluoro-4-iso-butoxyphenyl)urea]	570 nM
CC(C)COc1ccc(NC(=O)Nc2ccc3c(ccn3CCN(C)C)c2)cc1F [Example 65, 1-[1-(2-Dimethyl-aminoethyl)-1H-in-dol-5-yl]-3-(3-fluoro-4-iso-butoxyphenyl)urea]	500 nM
CC(C)COc1ccc(NC(=O)Nc2ccc3c(ccn3CCN(C)C)c2)cc1 [Example 72, 1-[1-(2-Dimethyl-aminoethyl)-1H-in-dol-5-yl]-3-(4-iso-butoxyphenyl)urea]	320 nM
CN(C)CCn1ccc2cc(NC(=O)Nc3ccc(Oc4cccnc4)cc3)ccc21 [Example 73, 1-[1-(2-Dimethyl-aminoethyl)-1H-in-dol-5-yl]-3-[4-(py-ridin-3-yloxy)phe-nyl]urea]	140 nM
COc1ccccc1Oc1ccc(NC(=O)Nc2ccc3c(ccn3CCN(C)C)c2)cc1 [Example 76]	4250 nM
CN(C)CCn1ccc2cc(NC(=O)Nc3ccc(Oc4cccc(Cl)c4)cc3)ccc21 [Example 77, 1-[4-(3-Chloro-phenoxy)-phe-nyl]-3-[1-(2-dimethyl-aminoethyl)-1H-in-dol-5-yl]urea]	700 nM
COc1cc(Nc2ccccc2)ccc1NC(=O)Nc1ccc2c(ccn2CCN(C)C)c1 [Example 79, 1-[1-(2-Dimethyl-aminoethyl)-1H-indol-5-yl]-3-(2-meth-oxy-4-phenyl-aminophenyl)-urea]	2130 nM
CN(C)CCn1ccc2cc(NC(=O)Nc3ccc(OCc4ccccc4)cc3)ccc21 [Example 80, 1-(4-Benzyloxyphenyl)-3-[1-(2-di-methylaminoethyl)-1H-in-dol-5-yl]urea]	3360 nM
Cc1ccc(Oc2ccc(NC(=O)Nc3ccc4c(ccn4CCN(C)C)c3)cc2)cc1 [Example 84, 1-[1-(2-Di-methylaminoethyl)-1H-in-dol-5-yl]-3-(4-p-tolyl-oxyphenyl)urea]	400 nM
CN(C)CCn1ccc2cc(NC(=O)Nc3ccc(Oc4cccc(C(F)(F)F)c4)cc3)ccc21 [Example 86, 1-[1-(2-Di-methylaminoethyl)-1H-in-dol-5-yl]-3-[4-(3-tri-fluoromethyl-phenoxy)phenyl]urea]	2780 nM
CN(C)CCn1ccc2cc(NC(=O)Nc3ccc(Oc4ccccc4Cl)cc3)ccc21 [Example 105, 1-[4-(2-Chloro-phenoxy)-phenyl]-3-[1-(2-di-methylaminoethyl)-1H-in-dol-5-yl]urea]	1000 nM
CN(C)CCn1ccc2cc(NC(=O)Nc3ccc(Oc4ccccc4)nc3)ccc21 [Example 106, 1-[1-(2-Di-methylaminoethyl)-1H-in-dol-5-yl]-3-(6-phenoxy-pyridin-3-yl)urea]	200 nM
COc1cccc(Oc2ccc(NC(=O)Nc3ccc4c(ccn4CCN(C)C)c3)cc2)c1 [Example 109, 1-[1-(2-Dimethyl-aminoethyl)-1H-indol-5-yl]-3-[4-(3-meth-oxyphenoxy)-phenyl]urea]	1290 nM
